From patent US20140343000A1 (priority 2011, published 2014)

These compounds were tested on recombinant NL4-3 virus (Renilla luciferase in nef, Gag P373S; NLRluc) in MT-2 cells (assay: whole plant or invertebrate). Details: Renilla, NL43.
Format: cell-based, HIV
How it was run: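 Virus from 293T transfection, titered in MT-2 by luciferase. MT-2 (RPMI, 10% HI-FBS) infected ± inhibitor serial dilutions, 4-5 d. Readout: Dual Luciferase premix (lysis:reagent:Stop & Glo 2:1:1), immediate luminescence.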
Work on `C=C(C)[C@@H]1CC[C@]2(N3CC3)CC[C@]3(C)[C@H](CC[C@@H]4[C@@]5(C)CC=C(c6ccc(C(=O)O)cc6)C(C)(C)[C@@H]5CC[C@]43C)[C@@H]12` [Example 173, 4-((1R,3aS,5aR,5bR,7aR,11aS,11bR,13bR)-3a-(aziridin-1-yl)-5a,5b,8,8,11a-pentamethyl-1-(prop-1-en-2-yl)-2,3,3a,4,5,5a,5b,6,7,7a,8,11,11a,11b,12,13,13a,13b-octadecahydro-1H-cyclopenta[a]chrysen-9-yl)benzoic acid] yielded an EC50 of less than 100 nM.

Same assay, conditions: Renilla, NL43, luciferase activity in cells infected for 4-5 days with NLRluc recombinants, serial dilutions of inhibitor; class symbols (key in Table 1); read-out: EC50
Compound `C=C(C)[C@@H]1CC[C@]2(NC(=O)CN(C)C3CCS(=O)(=O)C3)CC[C@]3(C)[C@H](CC[C@@H]4[C@@]5(C)CC=C(c6ccc(C(=O)O)cc6)C(C)(C)[C@@H]5CC[C@]43C)[C@@H]12` (stereo partly drawn) [Example 100, benzoic acid, 4-[(1R,3aS,5aR,5bR,7aR,11aS,11bR,13aR,13bR)-2,3,3a,4,5,5a,5b,6,7,7a,8,11,11a,11b,12,13,13a,13b-octadecahydro-5a,5b,8,8,11a-pentamethyl-1-(1-methylethenyl)-3a-[[[methyl(tetrahydro-1,1-dioxido-3-thienyl)amino]acetyl]amino]-1H-cyclopenta[a]chrysen-9-yl]] has an EC50 of less than 100 nM.
For `C=C(C)[C@@H]1CC[C@]2(NC(=O)NCCCN3CCOCC3)CC[C@]3(C)[C@H](CC[C@@H]4[C@@]5(C)CC=C(c6ccc(C(=O)O)cc6)C(C)(C)[C@@H]5CC[C@]43C)[C@@H]12` [Example 11, 4-((1R,3aS,5aR,5bR,7aR,11aS,11bR,13aR,13bR)-5a,5b,8,8,11a-pentamethyl-3a-(3-(3-morpholinopropyl)ureido)-1-(prop-1-en-2-yl)-2,3,3a,4,5,5a,5b,6,7,7a,8,11,11a,11b,12,13,13a,13b-octadecahydro-1H-cyclopenta[a]chrysen-9-yl)benzoic acid], the EC50 was less than 100 nM.
Compound `C=C(C)[C@@H]1CC[C@]2(NC(=O)COc3cccnc3)CC[C@]3(C)[C@H](CC[C@@H]4[C@@]5(C)CC=C(c6ccc(C(=O)O)cc6)C(C)(C)[C@@H]5CC[C@]43C)[C@@H]12` [Example 121, 4-((1R,3aS,5aR,5bR,7aR,11aS,11bR,13aR,13bR)-5a,5b,8,8,11a-pentamethyl-1-(prop-1-en-2-yl)-3a-(2-(pyridin-3-yloxy)acetamido)-2,3,3a,4,5,5a,5b,6,7,7a,8,11,11a,11b,12,13,13a,13b-octadecahydro-1H-cyclopenta[a]chrysen-9-yl)benzoic acid] has an EC50 of less than 100 nM.
In the case of `C=C(C)[C@@H]1CC[C@]2(NC(=O)Cn3ccnn3)CC[C@]3(C)[C@H](CC[C@@H]4[C@@]5(C)CC=C(c6ccc(C(=O)O)cc6)C(C)(C)[C@@H]5CC[C@]43C)[C@@H]12` [Example 88, 4-((1R,3aS,5aR,5bR,7aR,11aS,11bR,13aR,13bR)-3a-(2-(1H-1,2,3-triazol-1-yl)acetamido)-5a,5b,8,8,11a-pentamethyl-1-(prop-1-en-2-yl)-2,3,3a,4,5,5a,5b,6,7,7a,8,11,11a,11b,12,13,13a,13b-octadecahydro-1H-cyclopenta[a]chrysen-9-yl)benzoic acid], the EC50 is reported as less than 100 nM.
Work on `C=C(C)[C@@H]1CC[C@]2(N(CCN3CCOCC3)CCN3CCOCC3)CC[C@]3(C)[C@H](CC[C@@H]4[C@@]5(C)CC=C(c6ccc(C(=O)O)cc6)C(C)(C)[C@@H]5CC[C@]43C)[C@@H]12` [Example 160, 4-((1R,3aS,5aR,5bR,7aR,11aS,11bR,13aR,13bR)-3a-(bis(2-morpholinoethyl)amino)-5a,5b,8,8,11a-pentamethyl-1-(prop-1-en-2-yl)-2,3,3a,4,5,5a,5b,6,7,7a,8,11,11a,11b,12,13,13a,13b-octadecahydro-1H-cyclopenta[a]chrysen-9-yl)benzoic acid] yielded an EC50 of less than 100 nM.
With `C=C(C)[C@@H]1CC[C@]2(NCCN3CCN(C(C)(C)C)CC3)CC[C@]3(C)[C@H](CC[C@@H]4[C@@]5(C)CC=C(c6ccc(C(=O)O)cc6)C(C)(C)[C@@H]5CC[C@]43C)[C@@H]12` [Example B27, 4-((1R,3aS,5aR,5bR,7aR,11aS,11bR,13aR,13bR)-3a-((2-(4-(tert-butyl)piperazin-1-yl)ethyl)amino)-5a,5b,8,8,11a-pentamethyl-1-(prop-1-en-2-yl)-2,3,3a,4,5,5a,5b,6,7,7a,8,11,11a,11b,12,13,13a,13b-octadecahydro-1H-cyclopenta[a]chrysen-9-yl)benzoic acid] the EC50 was less than 100 nM.
`C=C(C)[C@@H]1CC[C@]2(NCCO)CC[C@]3(C)[C@H](CC[C@@H]4[C@@]5(C)CC=C(c6ccc(C(=O)O)cc6)C(C)(C)[C@@H]5CC[C@]43C)[C@@H]12` [Example 151, 4-((1R,3aS,5aR,5bR,7aR,11aS,11bR,13aR,13bR)-3a-(2-hydroxyethylamino)-5a,5b,8,8,11a-pentamethyl-1-(prop-1-en-2-yl)-2,3,3a,4,5,5a,5b,6,7,7a,8,11,11a,11b,12,13,13a,13b-octadecahydro-1H-cyclopenta[a]chrysen-9-yl)benzoic acid] was tested, and the EC50 was less than 100 nM.
In the case of `C=C(C)[C@@H]1CC[C@]2(NC(=O)C3(NC(=O)OC(C)(C)C)CC3)CC[C@]3(C)[C@H](CC[C@@H]4[C@@]5(C)CC=C(c6ccc(C(=O)O)cc6)C(C)(C)[C@@H]5CC[C@]43C)[C@@H]12` [Example 130-2, 4-((1R,3aS,5aR,5bR,7aR,11aS,11bR,13aR,13bR)-3a-(1-(tert-butoxycarbonylamino)cyclopropanecarboxamido)-5a,5b,8,8,11a-pentamethyl-1-(prop-1-en-2-yl)-2,3,3a,4,5,5a,5b,6,7,7a,8,11,11a,11b,12,13,13a,13b-octadecahydro-1H-cyclopenta[a]chrysen-9-yl)benzoic acid], the EC50 is reported as less than 100 nM.
`C=C(C)[C@@H]1CC[C@]2(NCCN3CCN(C(C)=O)CC3)CC[C@]3(C)[C@H](CC[C@@H]4[C@@]5(C)CC=C(c6ccc(C(=O)O)cc6)C(C)(C)[C@@H]5CC[C@]43C)[C@@H]12` [Example B24, 4-((1R,3aS,5aR,5bR,7aR,11aS,11bR,13aR,13bR)-3a-((2-(4-acetylpiperazin-1-yl)ethyl)amino)-5a,5b,8,8,11a-pentamethyl-1-(prop-1-en-2-yl)-2,3,3a,4,5,5a,5b,6,7,7a,8,11,11a,11b,12,13,13a,13b-octadecahydro-1H-cyclopenta[a]chrysen-9-yl)benzoic acid] gave an EC50 of less than 100 nM.
In the case of `C=C(C)[C@@H]1CC[C@]2(NC(=O)NCCCn3ccnc3C)CC[C@]3(C)[C@H](CC[C@@H]4[C@@]5(C)CC=C(c6ccc(C(=O)O)cc6)C(C)(C)[C@@H]5CC[C@]43C)[C@@H]12` [Example 12, 4-((1R,3aS,5aR,5bR,7aR,11aS,11bR,13aR,13bR)-5a,5b,8,8,11a-pentamethyl-3a-(3-(3-(2-methyl-1H-imidazol-1-yl)propyl)ureido)-1-(prop-1-en-2-yl)-2,3,3a,4,5,5a,5b,6,7,7a,8,11,11a,11b,12,13,13a,13b-octadecahydro-1H-cyclopenta[a]chrysen-9-yl)benzoic acid], the EC50 is reported as less than 100 nM.
With `C=C(C)[C@@H]1CC[C@]2(N)CC[C@]3(C)[C@H](CC[C@@H]4[C@@]5(C)CC=C(c6ccc(C(=O)O)cc6)C(C)(C)[C@@H]5CC[C@]43C)[C@@H]12` [Example 1, 4-((1R,3aS,5aR,5bR,7aR,11aS,11bR,13aR,13bR)-3a-amino-5a,5b,8,8,11a-pentamethyl-1-(prop-1-en-2-yl)-2,3,3a,4,5,5a,5b,6,7,7a,8,11,11a,11b,12,13,13a,13b-octadecahydro-1H-cyclopenta[a]chrysen-9-yl)benzoic acid] the EC50 was less than 100 nM.
For `C=C(C)[C@@H]1CC[C@]2(NCCC(=O)O)CC[C@]3(C)[C@H](CC[C@@H]4[C@@]5(C)CC=C(c6ccc(C(=O)O)cc6)C(C)(C)[C@@H]5CC[C@]43C)[C@@H]12` [Example B12, 4-((1R,3aS,5aR,5bR,7aR,11aS,11bR,13aR,13bR)-3a-((2-carboxyethyl)amino)-5a,5b,8,8,11a-pentamethyl-1-(prop-1-en-2-yl)-2,3,3a,4,5,5a,5b,6,7,7a,8,11,11a,11b,12,13,13a,13b-octadecahydro-1H-cyclopenta[a]chrysen-9-yl)benzoic acid], the EC50 was less than 100 nM.
`C=C(C)[C@@H]1CC[C@]2(NCCNc3cccc(SC)n3)CC[C@]3(C)[C@H](CC[C@@H]4[C@@]5(C)CC=C(c6ccc(C(=O)O)cc6)C(C)(C)[C@@H]5CC[C@]43C)[C@@H]12` [Example 198, 4-((1R,3aS,5aR,5bR,7aR,11aS,11bR,13aR,13bR)-5a,5b,8,8,11a-pentamethyl-3a-(2-(6-(methylthio)pyridin-2-ylamino)ethylamino)-1-(prop-1-en-2-yl)-2,3,3a,4,5,5a,5b,6,7,7a,8,11,11a,11b,12,13,13a,13b-octadecahydro-1H-cyclopenta[a]chrysen-9-yl)benzoic acid] gave an EC50 of less than 100 nM.
`C=C(C)[C@@H]1CC[C@]2(NC(=O)Cc3ccccn3)CC[C@]3(C)[C@H](CC[C@@H]4[C@@]5(C)CC=C(c6ccc(C(=O)O)cc6)C(C)(C)[C@@H]5CC[C@]43C)[C@@H]12` [Example 127, 4-((1R,3aS,5aR,5bR,7aR,11aS,11bR,13aR,13bR)-5a,5b,8,8,11a-pentamethyl-1-(prop-1-en-2-yl)-3a-(2-(pyridin-2-yl)acetamido)-2,3,3a,4,5,5a,5b,6,7,7a,8,11,11a,11b,12,13,13a,13b-octadecahydro-1H-cyclopenta[a]chrysen-9-yl)benzoic acid] gave an EC50 of less than 100 nM.

Same assay, conditions: Renilla, NL43, luciferase activity in cells infected for 4-5 days with NLRluc recombinants, serial dilutions of inhibitor; numeric values; read-out: EC50
Compound `C=C(C)[C@@H]1CC[C@]2(NCC3CCCN(C(=O)OC(C)(C)C)C3)CC[C@]3(C)[C@H](CC[C@@H]4[C@@]5(C)CC=C(c6ccc(C(=O)O)cc6)C(C)(C)[C@@H]5CC[C@]43C)[C@@H]12` (stereo partly drawn) [Example 174, 4-((1R,3aS,5aR,5bR,7aR,11aS,11bR,13aR,13bR)-3a-((1-(tert-butoxycarbonyl)piperidin-3-yl)methylamino)-5a,5b,8,8,11a-pentamethyl-1-(prop-1-en-2-yl)-2,3,3a,4,5,5a,5b,6,7,7a,8,11,11a,11b,12,13,13a,13b-octadecahydro-1H-cyclopenta[a]chrysen-9-yl)benzoic acid] has an EC50 of 300 nM.
